Laboratory results reported in patent US20260103471A1, “CYCLIC UREA THIAZOLYL COMPOUNDS FOR TREATMENT OF HSV” (Assembly Biosciences, Inc., priority 2022, published 2026).

What was measured:
HSV-1 = HSV-1 Antiviral Assay (Vero cells, cell viability); assay type: cell-based; conditions: Human alphaherpesvirus 1, 96 h; Vero cells, 80 TCID50 HSV-1, 4 days, cell viability; read-out: HSV-1 EC50
Description: Vero cells were cultured in Dulbecco's Modified Eagle Medium (DMVEM) supplemented with […] and 100 units/mL penicillin and streptomycin. The cells were passaged 2-3 times per week to maintain sub-confluent densities.
Vero cells were seeded into 96-well plates at a density of 2.5×10^3 cells per well and allowed to attach overnight. Following attachment, the media was replaced with 50 μL of infection medium (DMVEM supplemented with 2% fetal bovine serum and 100 units/mL penicillin and streptomycin). A Tecan D300e digital dispenser was then used to add compounds to the culture using an 8-point 3-fold serial dilution format. The DMSO concentration was normalized to 0.5% for all treatments. Following compound addition, 50 μL of infection medium containing 80 TCID50 HSV-1 was added to the cells and incubated at 37° C. for 4 days. After the incubation, the plates were equilibrated to room temperature, the media was removed, and […] a 1:1 dilution of Cell titer glow and phosphate buffered saline was added to the cells. Following a 5-minute incubation, cell viability was quantified by measuring luminance using a Tecan Infinite M1000 Pro plate reader.

HSV-2 G strain = experiment: HSV-2 Antiviral Assay (Vero cells, cell viability); assay type: cell-based; conditions: Human alphaherpesvirus 2, Vero, 120 h, Vero cells, 160 TCID50 HSV-2 G strain, 5 days, cell viability
Outline: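 Antiviral readout is survival of infected Vero cells: after 5 days at 37 °C with 160 TCID50 HSV-2 G strain plus serially diluted compound (8 points, 3-fold, 0.5% DMSO), WST-8 was added for 3 h and absorbance measured at 460/620 nm. Cells seeded at 1.0×10^4 per well.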

| SMILES | EC50 (HSV-1) | EC50 (HSV-2 G strain) |
| --- | --- | --- |
| Cc1nc(N2CCCN(c3ccc(-c4ccccc4F)c(F)c3)C2=O)sc1S(N)(=O)=O [Compound 95] | 100 to 1000 nM | 100 to 1000 nM |
| Cc1nc(N2CCCN([C@H](C)c3cccc(-c4cc(F)ccc4F)c3)C2=O)sc1S(N)(=O)=O (single isomer, unassigned) [Compound 176] | 1000 to 5000 nM | 1000 to 5000 nM |
| Cc1nc(N2CCCN(c3ccc(-c4cccc(F)c4F)cc3)C2=O)sc1S(N)(=O)=O [Compound 6] | < 100 nM | < 100 nM |
| CNS(=O)(=O)c1sc(N2CCCN(Cc3cccc(-c4ccccc4)c3)C2=O)nc1C [Compound 182] | < 100 nM | < 100 nM |
| Cc1nc(N2CCCN(c3ccc(-c4cc(F)cc(-c5cncs5)c4F)cc3)C2=O)sc1S(N)(=O)=O [Compound 211] | < 100 nM | < 100 nM |
| Cc1nc(N2CCCN(c3ccc(-c4cc(F)cc5ncsc45)cc3)C2=O)sc1S(N)(=O)=O [Compound 255] | < 100 nM | < 100 nM |
| Cc1nc(N2CCCN(c3ccc(-c4snc5ccccc45)cc3)C2=O)sc1S(N)(=O)=O [Compound 305] | < 100 nM | < 100 nM |
| CNS(=O)(=O)c1sc(N2CCCN(Cc3cccc(-c4cc(F)ccc4F)c3)C2=O)nc1C [Compound 181] | < 100 nM | 100 to 1000 nM |
| Cc1nc(N2CCCN(c3cccc(-c4ccccn4)c3)C2=O)sc1S(N)(=O)=O [Compound 4] | 100 to 1000 nM | 100 to 1000 nM |
| Cc1nc(N2CCCN(c3ccc(-c4cccc5cn[nH]c45)cc3)C2=O)sc1S(N)(=O)=O [Compound 54] | 100 to 1000 nM | 100 to 1000 nM |
| Cc1nc(N2CCCN(c3ccc(-c4cccc5[nH]c(=O)sc45)cc3)C2=O)sc1S(N)(=O)=O [Compound 78] | 100 to 1000 nM | 100 to 1000 nM |
| CNS(=O)(=O)c1sc(N2CCCN(c3ccc(-c4ccccn4)c(F)c3)C2=O)nc1C [Compound 128] | < 100 nM | < 100 nM |
| Cc1nc(N2CC3(COC3)CN(c3ccc(-c4cc(F)cc(-c5cnn(C(F)F)c5)c4F)cc3)C2=O)sc1S(N)(=O)=O [Compound 342] | < 100 nM | < 100 nM |
| CNS(=O)(=O)c1sc(N2CCCN(c3ccc(-c4ccccc4F)cc3)C2=O)nc1C [Compound 120] | < 100 nM | < 100 nM |
| Cc1nc(N2CCCN(c3ccc(-c4nccs4)cc3)C2=O)sc1S(N)(=O)=O [Compound 42, 4-Methyl-2-(2-oxo-3-(4-(thiazol-2-yl)phenyl)tetrahydropyrimidin-1(2H)-yl) thiazole-5-sulfonamide] | < 100 nM | < 100 nM |
| C#Cc1ccc(F)cc1-c1ccc(N2CCCN(c3nc(C)c(S(N)(=O)=O)s3)C2=O)cc1 [Compound 18] | < 100 nM | < 100 nM |
| Cc1nc(N2CC3(CC3)CN(c3ccc(-c4cc(F)ccc4F)cc3)C2=O)sc1[S@@](C)(=N)=O (single isomer, unassigned) [Compound 157] | 100 to 1000 nM | < 100 nM |
| Cc1nc(N2CCCN(c3cc(F)c(-c4ccccc4)cc3F)C2=O)sc1S(N)(=O)=O [Compound 99, 2-(3-(2,5-Difluoro-[1,1′-biphenyl]-4-yl)-2-oxotetrahydropyrimidin-1(2H)-yl)-4-methylthiazole-5-sulfonamide] | < 100 nM | < 100 nM |
| Cc1nc(N2CCCN(c3ccc(-c4cc(F)cc(Br)c4F)cc3)C2=O)sc1S(N)(=O)=O [Compound 212] | < 100 nM | < 100 nM |
| COc1c(F)cc(F)cc1-c1ccc(N2CCCN(c3nc(C)c(S(N)(=O)=O)s3)C2=O)cc1 [Compound 216] | < 100 nM | < 100 nM |
| Cc1nc(N2CCCN(c3ccc(-c4cccc5ncsc45)cc3)C2=O)sc1S(N)(=O)=O [Compound 67, 2-(3-(4-(Benzo[d]thiazol-7-yl)phenyl)-2-oxotetrahydropyrimidin-1(2H)-yl)-4-methylthiazole-5-sulfonamide] | < 100 nM | < 100 nM |
| Cc1nc(N2CCCN(Cc3cccc(-c4cc(F)ccc4F)c3)C2=O)sc1S(N)(=O)=O [Compound 172, 2-(3-((2′,5′-Difluoro-[1,1′-biphenyl]-3-yl)methyl)-2-oxotetrahydropyrimidin-1(2H)-yl)-4-methylthiazole-5-sulfonamide] | < 100 nM | < 100 nM |
| Cc1nc(N2CC(C(C)(C)F)CN(c3ccc(-c4cc(F)ccc4F)cc3)C2=O)sc1S(N)(=O)=O (stereo not drawn) [Compound 369] | < 100 nM | < 100 nM |
| Cc1nc(N2CC3(COC3)CN(c3ccc(-c4cc(F)ccc4F)cc3)C2=O)sc1S(C)(=O)=O [Compound 436] | < 100 nM | < 100 nM |
| CNS(=O)(=O)c1sc(N2CCCN(c3ccc(-c4cc(F)ccn4)cc3)C2=O)nc1C [Compound 121] | < 100 nM | < 100 nM |

| SMILES | EC50 (HSV-1) | EC50 (HSV-2 G strain) |
| --- | --- | --- |
| Cc1nc(N2CCCN(c3ccc(-c4cc(F)ccc4F)cc3)C2=O)sc1S(N)(=O)=O [Compound 5] | < 100 nM | < 100 nM |
| Cc1nc(N2CCCN(c3ccc(-c4nc5c(F)cccc5s4)cc3)C2=O)sc1S(N)(=O)=O [Compound 90] | 100 to 1000 nM | 100 to 1000 nM |
| Cc1nc(N2CCCN(c3ccc(-c4cc(F)cc5c4cc(C#N)n5C)cc3)C2=O)sc1S(N)(=O)=O [Compound 293] | < 100 nM | < 100 nM |
| Cc1nc(N2CCCN(c3ccc(-c4cc(F)ccc4Cl)cc3)C2=O)sc1S(N)(=O)=O [Compound 193] | < 100 nM | < 100 nM |
| Cc1nc(N2CC(F)CN(c3ccc(-c4cc(F)ccc4F)cc3)C2=O)sc1S(N)(=O)=O (stereo not drawn) [Compound 363] | < 100 nM | < 100 nM |
| Cc1nc(N2CC(C)CN(c3ccc(-c4cc(F)ccc4F)cc3)C2=O)sc1S(N)(=O)=O (stereo not drawn) [Compound 318] | < 100 nM | < 100 nM |
| Cc1nc(N2CCCN(c3cccc(-c4cc(F)ccc4F)c3)C2=O)sc1S(N)(=O)=O [Compound 16] | 100 to 1000 nM | 100 to 1000 nM |
| Cc1nc(N2CCCN(c3ccc(-c4cc(F)cc5nsnc45)cc3)C2=O)sc1S(N)(=O)=O [Compound 259] | < 100 nM | < 100 nM |
| Cc1nc(N2CCCN(c3ccc(-c4ccccc4F)cc3F)C2=O)sc1S(N)(=O)=O [Compound 96] | < 100 nM | < 100 nM |
| Cc1nc(N2CC3(CC3)CN(c3ccc(-c4cc(F)ccc4F)cc3)C2=O)sc1S(N)(=O)=O [Compound 110, 2-(7-(2′,5′-Difluoro-[1,1′-biphenyl]-4-yl)-6-oxo-5,7-diazaspiro [2.5]octan-5-yl)-4-methylthiazole-5-sulfonamide] | < 100 nM | < 100 nM |
| Cc1nc(N2CCCN(c3ccc(-c4cc(F)cc(F)n4)cc3)C2=O)sc1S(N)(=O)=O [Compound 235, 2-(3-(4-(4,6-difluoropyridin-2-yl)phenyl)-2-oxotetrahydropyrimidin-1(2H)-yl)-4-methylthiazole-5-sulfonamide] | < 100 nM | < 100 nM |
| Cc1nc(N2CCCN(c3ccc(-c4cc(F)ccn4)cc3)C2=O)sc1S(N)(=O)=O [Compound 36] | < 100 nM | < 100 nM |
| Cc1nc(N2CCCN(c3ccc(-c4ccccn4)cc3)C2=O)sc1S(N)(=O)=O [Compound 1, 4-Methyl-2-(2-oxo-3-(4-(pyridin-2-yl)phenyl)tetrahydropyrimidin-1(2H)-yl) thiazole-5-sulfonamide] | < 100 nM | < 100 nM |
| CNS(=O)(=O)c1sc(N2CCCN(c3ccc(-c4ccccc4F)c(F)c3)C2=O)nc1C [Compound 132] | 100 to 1000 nM | < 100 nM |
| Cc1nc(N2CCCN(c3ccc(-c4cc(F)ccc4F)cc3)C2=O)sc1S(=O)(=O)C1CC1 [Compound 163] | 100 to 1000 nM | 100 to 1000 nM |
| Cc1nc(N2CC(C)(C)CN(c3ccc(-c4cc(F)ccc4F)cc3)C2=O)sc1S(N)(=O)=O [Compound 106] | < 100 nM | – |
| Cc1nc(N2CCCN(c3ccc(-c4ccccc4F)cc3)C2=O)sc1[S+](C)[O-] (stereo not drawn) [Compound 168] | 100 to 1000 nM | – |
| Cc1nc(N2CCCN(c3ccc(-n4ncc5ccccc54)cc3)C2=O)sc1S(N)(=O)=O [Compound 93] | < 100 nM | – |
| Cc1nc(N2CCCN(c3ccc(-c4cc(F)ccc4F)cc3)C2=O)sc1S(=O)(=O)N1CCOCC1 [Compound 136] | 100 to 1000 nM | – |
| Cc1nc(N2CCCN(c3ccc(-c4ccccn4)c(F)c3)C2=O)sc1S(=O)(=O)NC1CC1 [Compound 129] | 100 to 1000 nM | – |
| CC(=O)NS(=O)(=O)c1sc(N2CCCN(c3ccc(-c4cc(F)ccc4F)cc3)C2=O)nc1C [Compound 137] | 1000 to 5000 nM | – |
| Cc1nc(N2CCCN(c3cnn(-c4ccccc4F)c3)C2=O)sc1S(N)(=O)=O [Compound 100] | 1000 to 5000 nM | – |
| Cc1nc(N2CC3(CC3)CN(c3ccc(-c4ccccc4F)cc3)C2=O)sc1[S@](C)(=N)=O (single isomer, unassigned) [Compound 159] | 100 to 1000 nM | – |
| Cc1nc(N2CCCN(c3ccc(-c4nnco4)cc3)C2=O)sc1S(N)(=O)=O [Compound 51, 2-(3-(4-(1,3,4-oxadiazol-2-yl)phenyl)-2-oxotetrahydropyrimidin-1(2H)-yl)-4-methylthiazole-5-sulfonamide] | 1000 to 5000 nM | – |
| Cc1nc(N2CCCN(c3ccc(-c4cccc(N)n4)cc3)C2=O)sc1S(N)(=O)=O [Compound 33] | 100 to 1000 nM | – |
